These are literature values, as cited in US20110086369A1, “FLUORESCENT COMPOUNDS FOR THE DIAGNOSIS OF INFECTIONS, PRODUCTION METHOD, AND APPLICATIONS THEREOF” (priority 2008, published 2011).

The test system of this series is Leishmania. The conditions noted are these: in Leishmania.

Each structure is given as a SMILES string.

For `CCCCCCCCCCCCCCCCOP(=O)([O-])OCC[N+](C)(C)C` [MT, hexadecylphosphocholine], the intracellular concentration result was “values in the millimolar rank”.
